Among the data in patent publication US12606572B2, “Substituted heterocycles and uses thereof” (Kumquat Biosciences Inc., priority 2023, dated 2026) are IC50 values, retold here.

Experiment [1] deals with T1, KRAS WT (Homo sapiens, UniProt P01116).
T1 construct: made in house; host or cells: E. coli BL21 (DE3)
As to the kind of experiment: HTRF assay, interaction of GST-tagged K-Ras with His-tagged hSOS1 (KRAS wildtype). The class given is biochemical. Particulars: <500 nM, read-out: Inhibition of KRAS WT (IC50). The procedure, abridged:
(§1)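 GST-K-Ras (G12S or WT) with anti-GST-Eu donor mixed with His-hSOS1 and anti-6His-XL665 acceptor in ~5 mM HEPES pH 7.4, 150 mM NaCl, 1 mM DTT, 0.05% BSA, 0.0025% Igepal. After ~10 min or longer, HTRF 665/620 nm ratio read.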
In general terms: In TR-FRET formats the signal depends on donor and acceptor labels being close together.

Experiment [2] addresses T2, KRAS G12S (Homo sapiens, UniProt P01116, G12S).
T2 construct: made in house; host or cells: E. coli BL21 (DE3)
As to the kind of experiment: HTRF assay, interaction of GST-tagged K-Ras with His-tagged hSOS1 (KRAS G12S). The class given is biochemical. As to conditions: <500 nM, read-out: Inhibition of KRAS G12S (IC50). The procedure, abridged:
as §1

T2 sequence (P01116 1-188 isoform P01116-2 G12S): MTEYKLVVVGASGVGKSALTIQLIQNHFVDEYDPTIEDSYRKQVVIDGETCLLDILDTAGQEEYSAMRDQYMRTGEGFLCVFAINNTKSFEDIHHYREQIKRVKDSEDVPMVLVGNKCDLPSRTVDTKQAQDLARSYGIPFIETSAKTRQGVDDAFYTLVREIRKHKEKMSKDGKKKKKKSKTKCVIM
T1 sequence (P01116 1-188 isoform P01116-2): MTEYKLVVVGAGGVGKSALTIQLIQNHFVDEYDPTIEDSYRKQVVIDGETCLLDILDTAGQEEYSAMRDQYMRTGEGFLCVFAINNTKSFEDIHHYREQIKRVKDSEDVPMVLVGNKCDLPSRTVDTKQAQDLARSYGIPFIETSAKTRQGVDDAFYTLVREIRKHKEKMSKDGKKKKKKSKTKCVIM

As usually defined, the IC50 is the concentration at which inhibition is half-maximal. For the compound `Cc1cn(C(=O)N2CC[C@@H](N3C[C@H](C)Oc4c(Cl)c(-c5ccc(F)c6sc(N)c(C#N)c56)c(F)c5nc(OC[C@@]67CCCN6C[C@H](F)C7)nc3c45)[C@H]2C)c(C)n1` [Compound 464, 2-amino-4-((6S)-8-chloro-4-((2R,3R)-1-(2,4-dimethyl-1H-imidazole-1-carbonyl)-2-methylpyrrolidin-3-yl)-10-fluoro-2-(((2R,7aS)-2-fluorotetrahydro-1H-pyrrolizin-7a(5H)-yl)methoxy)-6-methyl-5,6-dihydro-4H-[1,4]oxazepino[5,6,7-de]quinazolin-9-yl)-7-fluorobenzo[b] thiophene-3-carbonitrile], the half-maximal inhibitory concentration (IC50) in experiment [1] and in experiment [2] was less than 500 nM throughout.
On to `C=CC(=O)N1CC[C@@H](N2CCOc3c(Cl)c(-c4ccc(F)c5sc(N)c(C#N)c45)c(F)c4nc(OC[C@@]56CCCN5C[C@H](F)C6)nc2c34)[C@H]1C` [Compound 470, 4-(4-((2R,3R)-1-acryloyl-2-methylpyrrolidin-3-yl)-8-chloro-10-fluoro-2-(((2R, 7aS)-2-fluorotetrahydro-1H-pyrrolizin-7a(5H)-yl)methoxy)-5,6-dihydro-4H-[1,4]oxazepino[5,6,7-de]quinazolin-9-yl)-2-amino-7-fluorobenzo[b]thiophene-3-carbonitrile], for which the IC50 in experiment [1] and in experiment [2] was less than 500 nM each time.
`CC(C)[C@@H]1[C@H](CN2CCOc3c(Cl)c(-c4ccc(F)c5sc(N)c(C#N)c45)c(F)c4nc(OC[C@@]56CCCN5C[C@H](F)C6)nc2c34)CN1C(=O)n1cnc(F)n1` [Compound 471, 2-amino-4-(8-chloro-10-fluoro-4-(((2R,3R)-1-(3-fluoro-1H-1,2,4-triazole-1-carbonyl)-2-isopropylazetidin-3-yl)methyl)-2-(((2R,7aS)-2-fluorotetrahydro-1H-pyrrolizin-7a (5H)-yl)methoxy)-5,6-dihydro-4H-[1,4]oxazepino[5,6,7-de]quinazolin-9-yl)-7-fluorobenzo[b]thiophene-3-carbonitrile]: the half-inhibitory concentration (IC50) in experiment [1] and in experiment [2] was less than 500 nM in each case.
Turning to `N#Cc1c(N)sc2c(F)ccc(-c3c(Cl)c4c5c(nc(OC[C@@]67CCCN6C[C@H](F)C7)nc5c3F)N(CC3CN(C(=O)/C=C/C5CC5)C3)CCO4)c12` [Compound 418, 2-amino-4-(8-chloro-4-((1-((E)-3-cyclopropylacryloyl)azetidin-3-yl)methyl)-10-fluoro-2-(((2R,7aS)-2-fluorotetrahydro-1H-pyrrolizin-7a(5H)-yl)methoxy)-5,6-dihydro-4H-[1,4]oxazepino [5,6,7-de]quinazolin-9-yl)-7-fluorobenzo[b]thiophene-3-carbonitrile], the half-inhibitory concentration (IC50) in experiment [1] and in experiment [2] was less than 500 nM throughout.
For `CC(C)[C@@H]1[C@H](CN2CCOc3c(Cl)c(-c4ccc(F)c5sc(N)c(C#N)c45)c(F)c4nc(OC[C@@]56CCCN5C[C@H](F)C6)nc2c34)CN1C(=O)n1cnc(Cl)n1` [Compound 493, 2-amino-4-(8-chloro-4-(((2R,3R)-1-(3-chloro-1H-1,2,4-triazole-1-carbonyl)-2-isopropylazetidin-3-yl)methyl)-10-fluoro-2-(((2R,7aS)-2-fluorotetrahydro-1H-pyrrolizin-7a (5H)-yl)methoxy)-5,6-dihydro-4H-[1,4]oxazepino[5,6,7-de]quinazolin-9-yl)-7-fluorobenzo[b]thiophene-3-carbonitrile], the IC50 in experiment [1] and in experiment [2] was less than 500 nM throughout.
With `C[C@@H]1C(CN2CCOc3c(Cl)c(-c4ccc(F)c5sc(N)c(C#N)c45)c(F)c4nc(OC[C@@]56CCCN5C[C@H](F)C6)nc2c34)CN1C(=O)n1ccnc1` (stereo partly drawn) [Compound 413, 4-(4-(((2R)-1-(1H-imidazole-1-carbonyl)-2-methylazetidin-3-yl)methyl)-8-chloro-10-fluoro-2-(((2R,7aS)-2-fluorotetrahydro-1H-pyrrolizin-7a(5H)-yl)methoxy)-5,6-dihydro-4H-[1,4]oxazepino[5,6,7-de]quinazolin-9-yl)-2-amino-7-fluorobenzo[b]thiophene-3-carbonitrile], the IC50 in experiment [1] and in experiment [2] was less than 500 nM each time.
For `C[C@@H]1[C@H](N2C[C@H](C)Oc3nc(-c4ccc(F)c5sc(N)c(C#N)c45)c(F)c4nc(OC[C@@]56CCCN5C[C@H](F)C6)nc2c34)CCN1C(=O)n1cnc(Cl)n1` [Compound 461, 2-amino-4-((S)-10-((2R,3R)-1-(3-chloro-1H-1,2,4-triazole-1-carbonyl)-2-methylpyrrolidin-3-yl)-4-fluoro-2-(((2R,7aS)-2-fluorotetrahydro-1H-pyrrolizin-7a(5H)-yl)methoxy)-8-methyl-9,10-dihydro-8H-7-oxa-1,3,6,10-tetraazacyclohepta[de]naphthalen-5-yl)-7-fluorobenzo[b]thiophene-3-carbonitrile], the 50% inhibitory concentration (IC50) in experiment [1] and in experiment [2] was less than 500 nM each time.
Regarding `C=C(F)C(=O)N1CC(CN2CCOc3c(Cl)c(-c4ccc(F)c5sc(N)c(C#N)c45)c(F)c4nc(OC[C@@]56CCCN5C[C@H](F)C6)nc2c34)C1` [Compound 491, 2-amino-4-(8-chloro-10-fluoro-4-((1-(2-fluoroacryloyl)azetidin-3-yl)methyl)-2-(((2R,7aS)-2-fluorotetrahydro-1H-pyrrolizin-7a(5H)-yl)methoxy)-5,6-dihydro-4H-[1,4]oxazepino[5,6,7-de]quinazolin-9-yl)-7-fluorobenzo[b]thiophene-3-carbonitrile], the IC50 in experiment [1] and in experiment [2] was less than 500 nM in each case.
In the case of `C[C@H](O)[C@H]1COc2c(Cl)c(-c3ccc(F)c4sc(N)c(C#N)c34)c(F)c3nc(OC[C@@]45CCCN4C[C@H](F)C5)nc(c23)N1C[C@H]1CN(C(=O)n2ccnc2)[C@@H]1C` (single isomer, unassigned) [Compound 402], the IC50 in experiment [1] and in experiment [2] was less than 500 nM in each case.
With `Cc1c(C#N)ncn1C(=O)N1C[C@@H](CN2CCOc3c(Cl)c(-c4ccc(F)c5sc(N)c(C#N)c45)c(F)c4nc(OC[C@@]56CCCN5C[C@H](F)C6)nc2c34)[C@H]1C1(C)CC1` (single isomer, unassigned) [Compound 452], the half-inhibitory concentration (IC50) in experiment [1] and in experiment [2] was less than 500 nM each time.
Consider `C[C@H](O)[C@H]1COc2c(Cl)c(-c3ccc(F)c4sc(N)c(C#N)c34)c(F)c3nc(OC[C@@]45CCCN4C[C@H](F)C5)nc(c23)N1CCN(C)C(=O)n1ccnc1` [Compound 449, N-(2-((5R)-9-(2-amino-3-cyano-7-fluorobenzo[b]thiophen-4-yl)-8-chloro-10-fluoro-2-(((2R,7aS)-2-fluorotetrahydro-1H-pyrrolizin-7a(5H)-yl)methoxy)-5-((S)-1-hydroxyethyl)-5,6-dihydro-4H-[1,4]oxazepino [5,6,7-de]quinazolin-4-yl)ethyl)-N-methyl-1H-imidazole-1-carboxamide], for which the 50% inhibitory concentration (IC50) in experiment [1] and in experiment [2] was less than 500 nM in each case.
In the case of `C=CC(=O)N1CC(CN2CCOc3c(Cl)c(-c4ccc(F)c5sc(N)c(C#N)c45)c(F)c4nc(OC[C@@]56CCCN5C[C@H](F)C6)nc2c34)C1` [Compound 466, 4-(4-((1-acryloylazetidin-3-yl)methyl)-8-chloro-10-fluoro-2-(((2R,7aS)-2-fluorotetrahydro-1H-pyrrolizin-7a(5H)-yl)methoxy)-5,6-dihydro-4H-[1,4]oxazepino[5,6,7-de]quinazolin-9-yl)-2-amino-7-fluorobenzo[b]thiophene-3-carbonitrile], the IC50 in experiment [1] and in experiment [2] was less than 500 nM throughout.
As for `CC#CC(=O)N1CC(CN2CCOc3c(Cl)c(-c4ccc(F)c5sc(N)c(C#N)c45)c(F)c4nc(OC[C@@]56CCCN5C[C@H](F)C6)nc2c34)C1` [Compound 456, 2-amino-4-(4-((1-(but-2-ynoyl)azetidin-3-yl)methyl)-8-chloro-10-fluoro-2-(((2R,7aS)-2-fluorotetrahydro-1H-pyrrolizin-7a (5H)-yl)methoxy)-5,6-dihydro-4H-[1,4]oxazepino[5,6,7-de]quinazolin-9-yl)-7-fluorobenzo[b]thiophene-3-carbonitrile], the concentration for half-maximal inhibition (IC50) in experiment [1] and in experiment [2] was less than 500 nM in each case.
As for `C[C@@H]1[C@H](N2CCCc3nc(-c4ccc(F)c5sc(N)c(C#N)c45)c(F)c4nc(OC[C@@]56CCCN5C[C@H](F)C6)nc2c34)CCN1C(=O)n1cnc(Cl)n1` [Compound 433, 2-amino-4-(10-((2R,3R)-1-(3-chloro-1H-1,2,4-triazole-1-carbonyl)-2-methylpyrrolidin-3-yl)-4-fluoro-2-(((2R,7aS)-2-fluorotetrahydro-1H-pyrrolizin-7a(5H)-yl)methoxy)-7,8,9,10-tetrahydro-1,3,6,10-tetraazacyclohepta[de]naphthalen-5-yl)-7-fluorobenzo[b]thiophene-3-carbonitrile], the IC50 in experiment [1] and in experiment [2] was less than 500 nM throughout.
On to `C/C(C#N)=C/C(=O)N1CC(CN2CCOc3c(Cl)c(-c4ccc(F)c5sc(N)c(C#N)c45)c(F)c4nc(OC[C@@]56CCCN5C[C@H](F)C6)nc2c34)C1` [Compound 459, 2-amino-4-(8-chloro-4-((1-((Z)-3-cyanobut-2-enoyl)azetidin-3-yl)methyl)-10-fluoro-2-(((2R, 7aS)-2-fluorotetrahydro-1H-pyrrolizin-7a(5H)-yl)methoxy)-5,6-dihydro-4H-[1,4]oxazepino[5,6,7-de]quinazolin-9-yl)-7-fluorobenzo [b]thiophene-3-carbonitrile], for which the half-inhibitory concentration (IC50) in experiment [1] and in experiment [2] was less than 500 nM in each case.
